Test results as given in patent publication US6841177B1, “Pharmacological activities of curcuma longa extracts” (ASAC Compania de Biotecnologia e Investigacion S.A., priority 1999, dated 2005).
Entries after “also recorded” stand apart in the source; their conditions may differ.

System: HaCat cells
Experiment: Incorporation of BrdU in the DNA of human keratinocytes after radiation with ultraviolet light
Type: cell-based
Experimental: Culture of the HaCat line
The HaCat line is an immortalized line of normal human keratinocytes. These cells grow in a culture medium consisting of Hanks liquid to which 5% of foetal bovine serum and 2% of penicillin-streptomycin is added at 37° C. in a CO2 atmosphere.
To determine the replication rate, the cells were grown in microplates at a density of 2*10^4 cells per matrix. After 24 hours of treatment, the media was renewed and the cultures were incubated for 24 hours at 37° C. with different concentrations of the extracts and different concentrations of the curcumin and psoralen. Parallel controls were carried out with the solvent (ethanol 0.1%). The incorporation of BrdU was determined with the ELISA test.
The cells were radiated with UVA light at an intensity of 1 J/cm^2 and the incorporation of BrdU was then analysed.

[1] = after UVA radiation, human keratinocytes

Row | Structure (SMILES) | amount for 20 % incorporation of BrdU [1] | amount for 40 % incorporation of BrdU [1] | amount for 60 % incorporation of BrdU [1] | amount for 80 % incorporation of BrdU [1] | toxicity at the dose giving the same photosensitivisation as Curcuma extracts (10 ng/ml) | dose required to produce the same level of photosensitivisation as Curcuma extracts (after UV radiation, BrdU incorporation)
1 | COc1cc(/C=C/C(=O)CC(=O)/C=C/c2ccc(O)c(OC)c2)ccc1O [curcumin] | 1200 ng | 1000 ng | 800 ng | 600 ng | – | –
2 | O=c1ccc2cc3ccoc3cc2o1 [psoralen] | – | – | – | – | toxic doses; also recorded: toxic and mutagenic effects are produced | 10 ng/mL
